Usually MIC stands for the lowest concentration that inhibits growth of the organism. Broadly, the IC50 is the concentration needed to halve the response being measured.

For experiment [1], the system named is Mycobacterium tuberculosis H37Rv. Briefly: MIC, microplate Alamar Blue assay. The class given is cell-based. The source says:
MICs for Mycobacterium tuberculosis were quantified using microplate Alamar Blue assays as described [Collins, L. & Franzblau, S. (1997) Microplate Alamar Blue assay versus BACTEC 460 system for high-throughput screening of compounds against Mycobacterium tuberculosis and Mycobacterium avium. Antimicrob. Agents Chemother. 41, 1004-1009].

For experiment [2], the system named is Enterococcus faecium ATCC19434. Put plainly: MIC, spiral gradient endpoint assay. The class given is cell-based. As to conditions: Mueller-Hinton II agar, 16 h at 37° C., read-out: MIC E. faecium 19434. The source says:
(§1) Minimum inhibitory concentrations (MICs) for Staphylococcus aureus ATCC 12600, Staphylococcus aureus ATCC 13709 MSSA, Staphylococcus aureus BAA-1707 MRSA (MW2), Staphylococcus aureus BAA-1717 MRSA (USA300), Enterococcus faecalis ATCC 19433, Enterococcus faecium ATCC19434, and Escherichia coli D21f2tolC were quantified using spiral gradient endpoint assays, essentially as described [Wallace, A. and Corkill, J. (1989) Application of the spiral plating method to study antimicrobial action. J. Microbiol. Meths. 10, 303-310; Paton, J., Holt, A., and Bywater, M. (1990) Measurement of MICs of antibacterial agents by spiral gradient endpoint compared with conventional dilution methods. Int. J. Exp. Gin. Chemother. 3, 31-38; Schalkowsky S. (1994) Measures of susceptibility from a spiral gradient of drug concentrations. Adv. Exp. Med. Biol. 349, 107-120]. Assays employed exponential-gradient plates containing 150 mm×4 mm Mueller-Hinton II cation-adjusted agar and 0.4-100 μg/ml of test compound. Plates were prepared using an Autoplate 4000 spiral plater (Spiral Biotech, Inc.). Saturated overnight cultures were swabbed radially onto plates, and plates were incubated for 16 h at 37° C. For each culture, the streak length was measured using a clear plastic template (Spiral Biotech, Inc.), the test-compound concentration at the streak endpoint was calculated using the program SGE (Spiral Biotech, Inc.), and the MIC was defined as the calculated test-compound concentration at the streak endpoint.

The subject of experiment [3] is Staphylococcus aureus BAA-1707 MRSA (MW2). Put plainly: MIC, spiral gradient endpoint assay. Format: cell-based. The note with it: Mueller-Hinton II agar, 16 h at 37° C., read-out: MIC S. aureus MRSA 1707.
Excerpt: as §1

The subject of experiment [4] is Staphylococcus aureus ATCC 13709 MSSA. Briefly: MIC, spiral gradient endpoint assay. The class given is cell-based. As to conditions: Mueller-Hinton II agar, 16 h at 37° C., read-out: MIC S. aureus 13709.
Excerpt: as §1

Experiment [5] deals with Staphylococcus aureus BAA-1717 MRSA (USA300). Put plainly: MIC, spiral gradient endpoint assay. Format: cell-based. As to conditions: Mueller-Hinton II agar, 16 h at 37° C., read-out: MIC S. aureus MRSA 1717.
Excerpt: as §1

Experiment [6] has as its system Escherichia coli D21f2tolC. Put plainly: MIC, spiral gradient endpoint assay. The note with it: 16 h, read-out: MIC E. coli D21f2tolC. The class given is cell-based.
Excerpt: as §1

Experiment [7] has as its system Enterococcus faecalis ATCC 19433. Briefly: MIC, spiral gradient endpoint assay. Format: cell-based. As to conditions: ATCC19433, Mueller-Hinton II agar, 16 h at 37° C., read-out: MIC E. faecalis 19433.
Excerpt: as §1

Experiment [8] deals with Staphylococcus aureus ATCC 12600. Put plainly: MIC, spiral gradient endpoint assay. The class given is cell-based. The note with it: ATCC12600, Mueller-Hinton II agar, 16 h at 37° C., read-out: MIC S. aureus 12600.
Excerpt: as §1

Experiment [9] addresses E. coli RNA polymerase σ70 holoenzyme (Escherichia coli, UniProt P0A8T7+P0A8V2). Briefly: Fluorescence-detected RNA polymerase assay, E. coli RNA polymerase. The class given is biochemical. As to conditions: RiboGreen fluorescence, read-out: IC50 E. coli RNAP. As for the experimental part: Fluorescence-detected RNA polymerase assays with E. coli RNA polymerase were performed by a modification of the procedure of Kuhlman et al., 2004 [Kuhlman, P., Duff, H. & Galant, A. (2004) A fluorescence-based assay for multisubunit DNA-dependent RNA polymerases. Anal. Biochem. 324, 183-190]. Reaction mixtures contained (20 μl): 0-100 nM test compound, 75 nM E. coli RNA polymerase σ^70 holoenzyme, 20 nM 384 bp DNA fragment containing the bacteriophage T4 N25 promoter, 100 μM ATP, 100 μM GTP, 100 μM UTP, 100 μM CTP, 50 mM Tris-HCl, pH 8.0, 100 mM KCl, 10 mM MgCl2, 1 mM DTT, 10 μg/ml bovine serum albumin, and 5.5% glycerol. Reaction components other than DNA and NTPs were pre-incubated for 10 min at 37° C. Reactions were carried out by addition of DNA and incubation for 5 min at 37° C., followed by addition of NTPs and incubation for 60 min at 37° C. DNA was removed by addition of 1 μl 5 mM CaCl2 and 2 U DNaseI (Ambion, Inc.), followed by incubation for 90 min at 37° C. RNA was quantified by addition of 100 μl RiboGreen RNA Quantitation Reagent (Invitrogen, Inc.; 1:500 dilution in Tris-HCl, pH 8.0, 1 mM EDTA), followed by incubation for 10 min at 25° C., followed by measurement of fluorescence intensity [excitation wavelength=485 nm and emission wavelength=535 nm; QuantaMaster QM1 spectrofluorometer (PTI, Inc.)]. […]

≈ marks a conversion by molar mass, not a printed value.

Chain of E. coli RNA polymerase σ70 holoenzyme (P0A8V2 whole entry, the tested form may be a part): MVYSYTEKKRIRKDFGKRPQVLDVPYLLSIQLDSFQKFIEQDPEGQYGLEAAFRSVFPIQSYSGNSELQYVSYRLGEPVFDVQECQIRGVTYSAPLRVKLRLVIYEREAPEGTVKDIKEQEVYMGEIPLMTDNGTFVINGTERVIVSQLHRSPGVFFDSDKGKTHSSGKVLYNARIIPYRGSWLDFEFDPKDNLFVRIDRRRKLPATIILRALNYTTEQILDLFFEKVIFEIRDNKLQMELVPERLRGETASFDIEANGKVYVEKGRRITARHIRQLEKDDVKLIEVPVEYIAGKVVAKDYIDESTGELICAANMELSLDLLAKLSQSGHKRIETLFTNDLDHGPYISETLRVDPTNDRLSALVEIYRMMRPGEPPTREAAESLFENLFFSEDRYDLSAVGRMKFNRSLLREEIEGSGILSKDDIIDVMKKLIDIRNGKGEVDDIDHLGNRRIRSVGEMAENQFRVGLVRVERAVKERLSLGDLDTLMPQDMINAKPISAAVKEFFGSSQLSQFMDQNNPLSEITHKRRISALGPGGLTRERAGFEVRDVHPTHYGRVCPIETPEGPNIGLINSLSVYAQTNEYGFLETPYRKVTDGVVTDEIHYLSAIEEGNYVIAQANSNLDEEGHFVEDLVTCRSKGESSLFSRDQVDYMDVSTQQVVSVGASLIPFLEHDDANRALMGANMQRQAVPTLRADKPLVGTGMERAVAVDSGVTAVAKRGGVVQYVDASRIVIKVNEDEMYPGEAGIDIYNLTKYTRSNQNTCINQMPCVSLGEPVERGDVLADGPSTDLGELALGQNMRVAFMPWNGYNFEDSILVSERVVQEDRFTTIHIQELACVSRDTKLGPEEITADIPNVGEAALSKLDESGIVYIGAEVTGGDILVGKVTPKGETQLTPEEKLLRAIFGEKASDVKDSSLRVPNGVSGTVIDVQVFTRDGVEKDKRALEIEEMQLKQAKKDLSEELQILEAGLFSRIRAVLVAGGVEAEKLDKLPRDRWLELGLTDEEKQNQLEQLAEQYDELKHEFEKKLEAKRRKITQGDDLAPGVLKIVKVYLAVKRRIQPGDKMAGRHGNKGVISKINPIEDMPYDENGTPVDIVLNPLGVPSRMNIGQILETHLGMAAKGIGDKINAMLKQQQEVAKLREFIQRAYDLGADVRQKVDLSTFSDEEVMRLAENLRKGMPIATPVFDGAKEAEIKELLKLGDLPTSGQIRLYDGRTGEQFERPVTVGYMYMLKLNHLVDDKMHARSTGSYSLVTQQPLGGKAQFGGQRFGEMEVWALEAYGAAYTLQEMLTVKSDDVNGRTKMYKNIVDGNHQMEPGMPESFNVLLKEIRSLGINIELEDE
Chain of E. coli RNA polymerase σ70 holoenzyme (P0A8T7 whole entry, the tested form may be a part): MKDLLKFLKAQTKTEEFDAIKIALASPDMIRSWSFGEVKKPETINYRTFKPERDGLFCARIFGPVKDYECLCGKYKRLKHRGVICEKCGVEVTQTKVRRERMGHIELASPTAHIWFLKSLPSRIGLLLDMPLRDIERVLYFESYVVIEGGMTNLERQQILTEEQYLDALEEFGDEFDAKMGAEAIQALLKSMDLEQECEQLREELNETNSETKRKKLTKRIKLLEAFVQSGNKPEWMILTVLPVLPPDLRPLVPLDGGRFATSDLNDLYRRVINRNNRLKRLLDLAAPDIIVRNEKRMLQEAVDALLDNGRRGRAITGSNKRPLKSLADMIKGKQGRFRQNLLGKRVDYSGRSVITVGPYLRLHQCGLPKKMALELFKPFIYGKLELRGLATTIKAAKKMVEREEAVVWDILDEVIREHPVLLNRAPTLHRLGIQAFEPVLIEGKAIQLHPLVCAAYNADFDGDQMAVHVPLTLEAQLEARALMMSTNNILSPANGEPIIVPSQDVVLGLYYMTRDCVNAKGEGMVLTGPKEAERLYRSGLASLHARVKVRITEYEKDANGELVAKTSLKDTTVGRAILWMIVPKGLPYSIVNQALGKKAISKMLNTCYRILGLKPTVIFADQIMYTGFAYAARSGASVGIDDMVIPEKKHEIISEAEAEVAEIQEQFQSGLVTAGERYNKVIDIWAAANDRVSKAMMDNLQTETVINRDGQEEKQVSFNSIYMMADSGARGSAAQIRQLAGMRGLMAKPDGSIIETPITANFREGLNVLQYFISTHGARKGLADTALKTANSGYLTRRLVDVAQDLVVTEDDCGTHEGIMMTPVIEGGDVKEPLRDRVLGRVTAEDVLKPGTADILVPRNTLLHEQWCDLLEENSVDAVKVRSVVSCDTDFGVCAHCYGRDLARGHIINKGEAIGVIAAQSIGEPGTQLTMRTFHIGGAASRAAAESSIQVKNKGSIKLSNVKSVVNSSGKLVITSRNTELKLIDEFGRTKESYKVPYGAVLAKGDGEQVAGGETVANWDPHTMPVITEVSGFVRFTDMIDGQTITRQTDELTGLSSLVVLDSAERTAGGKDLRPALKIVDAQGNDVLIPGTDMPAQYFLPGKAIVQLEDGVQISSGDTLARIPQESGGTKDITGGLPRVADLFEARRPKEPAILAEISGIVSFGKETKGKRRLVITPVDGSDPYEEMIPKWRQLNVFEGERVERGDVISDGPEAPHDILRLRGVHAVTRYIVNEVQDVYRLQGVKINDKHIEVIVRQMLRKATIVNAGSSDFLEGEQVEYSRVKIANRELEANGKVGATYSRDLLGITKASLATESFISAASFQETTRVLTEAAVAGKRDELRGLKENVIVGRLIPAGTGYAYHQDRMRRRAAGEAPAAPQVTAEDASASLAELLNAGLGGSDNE
Chain of E. coli RNA polymerase σ70 holoenzyme (P0A7Z4 whole entry partner, the tested form may be a part): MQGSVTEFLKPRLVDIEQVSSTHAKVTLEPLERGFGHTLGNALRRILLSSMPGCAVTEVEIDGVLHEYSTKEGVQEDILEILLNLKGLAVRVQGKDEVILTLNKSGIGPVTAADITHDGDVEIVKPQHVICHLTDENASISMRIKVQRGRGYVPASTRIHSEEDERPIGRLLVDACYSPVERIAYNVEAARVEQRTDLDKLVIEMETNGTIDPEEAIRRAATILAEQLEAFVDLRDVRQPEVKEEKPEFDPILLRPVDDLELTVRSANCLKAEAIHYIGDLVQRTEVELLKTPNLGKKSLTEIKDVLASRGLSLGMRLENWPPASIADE
Chain of E. coli RNA polymerase σ70 holoenzyme (P0A800 whole entry partner, the tested form may be a part): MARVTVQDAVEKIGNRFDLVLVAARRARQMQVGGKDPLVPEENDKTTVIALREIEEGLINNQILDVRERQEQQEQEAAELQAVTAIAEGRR
Chain of E. coli RNA polymerase σ70 holoenzyme (P00579 whole entry partner, the tested form may be a part): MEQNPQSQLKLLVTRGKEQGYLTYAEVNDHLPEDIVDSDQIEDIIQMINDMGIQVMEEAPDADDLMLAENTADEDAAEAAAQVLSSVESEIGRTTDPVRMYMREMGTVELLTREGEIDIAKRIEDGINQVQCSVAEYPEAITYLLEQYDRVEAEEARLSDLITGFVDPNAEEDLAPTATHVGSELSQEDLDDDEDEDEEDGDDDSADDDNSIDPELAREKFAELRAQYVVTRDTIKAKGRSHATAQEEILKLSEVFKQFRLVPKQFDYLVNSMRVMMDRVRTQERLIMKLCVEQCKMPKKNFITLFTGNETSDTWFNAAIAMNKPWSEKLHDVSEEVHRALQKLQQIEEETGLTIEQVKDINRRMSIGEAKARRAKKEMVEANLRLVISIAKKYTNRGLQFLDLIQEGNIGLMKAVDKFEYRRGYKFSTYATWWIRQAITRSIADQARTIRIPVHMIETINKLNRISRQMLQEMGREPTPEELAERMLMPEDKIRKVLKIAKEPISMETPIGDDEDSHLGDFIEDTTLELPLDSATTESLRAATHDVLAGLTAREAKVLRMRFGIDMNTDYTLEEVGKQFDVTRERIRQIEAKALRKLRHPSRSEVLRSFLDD

For the compound `CCCCCC1=CC(=O)C(C(=O)CCc2ccccc2)C(=O)O1` (stereo not drawn) [Compound 1, 4-hydroxy-6-pentyl-3-(3-phenylpropanoyl)-2-pyrone], the minimum inhibitory concentration (MIC) in experiment [1] amounted to 9 µg/mL (≈ 28.6 µM); in [2], 7 µg/mL (≈ 22.3 µM); in experiment [3] it was 5 µg/mL (≈ 15.9 µM); in experiment [4] it was 9 µg/mL (≈ 28.6 µM); in experiment [5] it was 8 µg/mL (≈ 25.4 µM); in experiment [6], 3 µg/mL (≈ 9.54 µM). Also, the MIC came out at 3 µg/mL (≈ 9.54 µM) in [7] and 6 µg/mL (≈ 19.1 µM) in [8]. The IC50 in experiment [9] worked out at 37 µM.
